One data set relates to ALDH in UCB cells. Put plainly: BAAA staining of mononuclear umbilical cord blood (UCB) cells, flow cytometry. Format: cell-based, human. As for the experimental part: Human umbilical cord blood (UCB), intended for disposal, was collected into sterile bottles containing anticoagulant citrate buffer. The UCB used in these studies were processed within 24 hours of being harvested. White cells were enriched through a preliminary red cell agglutination where the UCB was diluted 1:2 with Dulbecco's phosphate buffered saline (PBS) at room temperature. These cells were then brought to a final concentration of 1% Hespan (DuPont Pharma, Wilmington, Del.) and were left to stand undisturbed for 1 hour. Non-agglutinated white blood cells were harvested and residual red cells were hemolysed at 37° C. in 0.17 M NH4Cl containing 10 mM Tris-HCl, pH 7.2 and […] EDTA. The recovered cells were washed in IMDM containing 2% FCS and mononuclear cells are then purified using Ficoll-Hypaque (1.077 g/ml). When held overnight, the cells were kept on ice in a 4° C. refrigerated room in IMDM with 20% FCS.
Mononuclear UCB cells were resuspended at 10^6 cells/ml in IMDM containing 2% FCS and were labeled with 1 μM BAAA for 30 min. When used, verapamil was included at […]. After staining, the cells were washed with ice cold staining media and maintained on ice until their analysis and sorting. The cells were then resuspended in staining media with […] 7-aminoactinomycin D (7AAD) (Molecular Probes; Eugene, OR). For antibody staining to permit multiparameter analyses, the cells were resuspended in staining media (100 μl) and antibodies were added directly to the cell suspensions. The cells were incubated on ice for 20 min. and then washed again in ice cold staining media. The cells were then analyzed or sorted on a FAC Star Plus cell sorter (BDIS) equipped with dual Coherent I -90 argon-dye laser. The BAAA was excited at 488 nm and emissions were detected using 515 DF20filter in FL1. Dead and dying cells were excluded on the basis of their high emission in the far red wavelength due to their uptake of 7AAD.
Umbilical Cord Blood (UCB) was chosen for its increasing promise as a source for transplantable hematopoietic stem cells. […]

Another data set concerns ALDH in L1210/cpa cells. Description: BAAA staining of cyclophosphamide-resistant ALDH+ L1210/cpa cells, flow cytometry. The class given is cell-based, murine. An excerpt:
(§1) FIGS. 1A-1D. BAAA staining identifies cells with high levels of ALDH activity. L1210/cpa is a derivative of the L1210 leukemic cell line that overexpresses ALDH. (FIGS. 1A and 1B represent L1210 cells, plus DEAB and minus DEAB, respectively; FIGS. 1C and 1D represent L1210/cpa cells, plus and minus DEAB, respectively).
(§2) K562, L1210 and L1210/cpa cells (ATCC) were maintained in suspension in RPMI 1640 media supplemented with 10% Fetal Calf Serum (FCS) and 5×10^−5 M β-mercaptoethanol.
(§3) To assay whether BAAA would permit the specific selection of ALDH^+ cells, studies initially determined an optimal response dose for the BAAA reagent in a murine cell line previously selected for cylophoshamide-resistance, L1210/cpa, that is known to be ALDH^+ (FIG. 1). The parental cell line, L1210 (FIGS. 1A and 1B) is cylophosphamide-sensitive and ALDH^−. […] In these studies, the BAAA could be used at a final concentration as low as 5 μM. This molar concentration is 10-fold lower than that used with the dansylated reagent.

Data set [1] in a line: Solubility and membrane permeability of the aldehyde reagent (BAAA). Format: physicochemical. As for the experimental part: Due to the inherent instability of aldehydes in aqueous solution, the reagent is prepared and stored as an acetal. […] Intracellular fluorescence can be used to select cells.
The next data set deals with L1210 cells. Description: BAAA staining of parental ALDH- L1210 cells, flow cytometry. The class given is cell-based, murine. The note with it: cyclophosphamide-sensitive parental L1210.
Text: as §1, §2, §3
On the technique in general: A flow cytometer gives signals particle by particle.

The subject of data set [2] is human ALDH1 in K562 cells. Put plainly: BAAA staining of K562 cells expressing ALDH1. The class given is cell-based. As for the experimental part: as §2
Multiple different ALDH isoenzymes exist and these may display different abilities to convert BAAA. […] Therefore, a human cell line known to express ALDH1, K562, was assayed with this novel reagent.

In data set [3] the test system is MDR efflux pump in UCB cells. Put plainly: Efflux of converted BAAA from UCB cells with or without verapamil. The note with it: product of the ALDH conversion of BAAA.
Method: When used, verapamil was included at 50 mM. After staining, the cells were washed with ice cold staining media and maintained on ice until their analysis and sorting. The cells were then resuspended in staining media with 10 mg/ml 7-aminoactinomycin D (7AAD) (Molecular Probes; Eugene, OR). For antibody staining to permit multiparameter analyses, the cells were resuspended in staining media (100 μl) and antibodies were added directly to the cell suspensions. The cells were incubated on ice for 20 min. and then washed again in ice cold staining media. The cells were then analyzed or sorted on a FAC Star Plus cell sorter (BDIS) equipped with dual Coherent I -90 argon-dye laser. […] Dead and dying cells were excluded on the basis of their high emission in the far red wavelength due to their uptake of 7AAD.
Since this reagent had never been previously characterized, the susceptibility of converted BAAA to MDR efflux was assayed. Although BODIPY aminoacetaldehyde passes through the cell membrane without active transport, the product of the ALDH conversion (BODIPY aminoacetate) might well be a substrate for the MDR pump.
The nature of data set [4]: Stability of BODIPY aminoacetaldehyde diethyl acetal on storage and in 1 N HCl. The class given is physicochemical. The method, then: The aldehyde dehydrogenase substrate is prepared as BODIPY aminoacetaldehyde diethyl acetal and lyophilized in 0.5 micromole aliquots. […] The acetal is then solubilized in DMSO to a final concentration of 5 mM. […] To convert the acetal to an acetaldehyde, aliquots of this solution are brought to a final concentration of 1 N HCl. […] After 2 hours in 1 N HCl, the vast majority of the BODIPY aminoacetaldehyde diethyl acetal has converted to BODIPY aminoacetaldehyde (BAAA), and is then diluted to […] in Dulbecco's phosphate buffered saline (PBS). This stock is added directly to cells prepared in Iscove's Modified Dulbecco's Medium (IMDM) with 2% FCS at concentrations ranging from 1 to 5 μM.)(See also FIG. 6.).

The test system of data set [5] is human hematopoietic cells. Description: Preliminary DAAA staining of human hematopoietic cells, flow cytometry. The class given is cell-based. The note with it: signal intensity too high in flow cytometry. The source says:
Preliminary studies using DAAA indicate that this reagent is unusable on preparations of human hematopoietic cells because the signal intensity of the reagent is too high to resolve discrete cell populations by flow cytometry. The present invention provides a fluorescent ALDH substrate that is free of the problems associated with DAAA and that can be used in the purification of primitive human hematopoietic cells.

For `Cc1cc(C)n2c1C=C1C=CC(CCC(=O)NCC=O)=[N+]1[B-]2(F)F` [BAAA, BODIPY aminoacetaldehyde], the “molar concentration relative to dansyl aminoacetaldehyde (fold lower)” value with ALDH in UCB cells (1 μM BAAA vs concentration of DAAA used for murine PHSC) amounted to 50 fold. Moreover, the “optimal concentration for resolving ALDH^br subpopulations” value in the data set with ALDH in UCB cells (UCB cells 10^6 cells/ml, IMDM 2% FCS) is 1 µM. In addition, the “molar concentration relative to the dansylated reagent (fold lower)” value in the data set with ALDH in L1210/cpa cells (5 μM BAAA vs dansylated reagent) is reported as 10 fold. In addition, the “detection of ALDH+ cells” value in the data set on ALDH in L1210/cpa cells (L1210/cpa) is on record as “able to detect ALDH^+ cells”. In addition, the “lowest usable final concentration” value in the data set with ALDH in L1210/cpa cells (continuous cell lines) is 5 µM. Also, the “solubility in PBS” value in data set [1] was “freely soluble”. Further, the “fluorescent response to BAAA” value with L1210 cells was “essentially no response”. The “conversion of BAAA / ALDH positivity” value in data set [2] is “positive for ALDH”.

With `CC1=CC(C)=[N+]2C1=Cc1ccc(CCC(=O)NCC(=O)O)n1[B-]2(F)F` [BODIPY Aminoacetate, BODIPY aminoacetate], the “substrate status for the MDR efflux pump” value in data set [3] was “Substrate for the MDR Efflux Pump”.

As to `CCOC(CNC(=O)CCC1=[N+]2C(=Cc3c(C)cc(C)n3[B-]2(F)F)C=C1)OCC` [BODIPY aminoacetaldehyde diethyl acetal], the “stability of solution in DMSO” value in data set [4] (5 mM in DMSO at 4° C.) is recorded as “up to 1 week”. For the same compound, the “half life of the acetal” value in data set [4] (1 N HCl, conversion to the acetaldehyde) worked out at 15 min. The “stability of lyophilized aliquots” value in data set [4] (lyophilized 0.5 micromole aliquots stored at -20° C.) is listed as “stable indefinitely”.

For `CN(C)c1cccc2c(S(=O)(=O)NCC=O)cccc12` [DAAA, dansyl aminoacetaldyde], the “usability for resolving discrete cell populations” value in data set [5] is listed as “unusable”.

Regarding `CCN(CC)c1ccc(C=O)cc1` [DEAB, diethylbenzaldehyde, reference compound], the “inhibition of the BAAA response” value in the data set with ALDH in UCB cells (excess DEAB, UCB cells) is “inhibited”; in data set [2], “entirely inhibited”. Moreover, the “block of the BAAA fluorescent response” value in the data set with ALDH in L1210/cpa cells (10-fold molar excess of DEAB, L1210/cpa) is “totally blocked”.
